Data from ChEMBL document CHEMBL3994562 (Medchemcomm, 2016).
Values after ≈ are worked out from the molar mass of the structure shown.

Tests used:
[1] = test system: SCC-4; test: Antiproliferative activity against human SCC4 cells; format: functional, cell-based
[2] = test system: SGC-7901; test: Antiproliferative activity against human SGC7901 cells after 24 to 72 hrs by MTT assay; format: functional, cell-based
[3] = Aqueous solubility of the compound in water after 48 hrs by UV spectrophotometer; format: physicochemical
[4] = test system: HepG2; test: Antiproliferative activity in human HepG2 cells after 72 hrs by MTT assay; format: functional, cell-based; details: HepG2, 72 h
[5] = test system: HCT-116; test: Antiproliferative activity in human HCT116 cells after 72 hrs by MTT assay; format: functional, cell-based; details: HCT-116, 72 h
[6] = test system: A549; test: Antiproliferative activity in human A549 cells after 72 hrs by MTT assay; format: functional, cell-based; details: A549, 72 h
[7] = test system: MCF7; test: Antiproliferative activity in human MCF7 cells after 72 hrs by MTT assay; format: functional, cell-based; details: MCF7, 72 h
[8] = test system: MCF7; test: Antiproliferative activity against human MCF7 cells; format: functional, cell-based
[9] = test system: Bel-7402; test: Antiproliferative activity in human Bel7402 cells after 72 hrs by MTT assay; format: functional, cell-based; details: Bel-7402, 72 h
[10] = test system: Bel-7402; test: Antiproliferative activity in 5-FU resistant human Bel7402 cells after 72 hrs by MTT assay; format: functional, cell-based; details: Bel-7402, 72 h
[11] = test system: A549; test: Antiproliferative activity against human A549 cells
[12] = test system: HL-60; test: Antiproliferative activity against human HL60 cells; format: functional, cell-based
[13] = Antiproliferative activity against human nasopharyngeal carcinoma cells; format: functional, cell-based; details: Nasopharyngeal carcinoma cell
[14] = test system: HepG2; test: Antiproliferative activity against human HepG2 cells
[15] = test system: Bel-7402; test: Antiproliferative activity against human Bel7402 cells after 24 to 72 hrs by MTT assay; format: functional, cell-based
[16] = test system: HCT-116; test: Potency index, ratio of 5-FU IC50 to compound IC50 for human HCT116 cells; format: functional
[17] = test system: HepG2; test: Potency index, ratio of 5-FU IC50 to compound IC50 for human HepG2 cells; format: functional
[18] = test system: HCT-116; test: Induction of apoptosis in human HCT116 cells after 48 hrs by annexin V-FITC/propidium iodide staining-based flow cytometric method; format: functional, cell-based
[19] = test system: HCT-116; test: Induction of apoptosis in human HCT116 cells at 4 uM after 48 hrs by annexin V-FITC/propidium iodide staining-based flow cytometric method; format: functional
[20] = test system: HCT-116; test: Cell cycle arrest in human HCT116 cells assessed as accumulation at G2/M phase after 24 hrs by propidium iodide staining-based flow cytometric analysis; format: functional
[21] = test system: HCT-116; test: Cell cycle arrest in human HCT116 cells assessed as decrease in cell population at G0/G1 phase after 24 hrs by propidium iodide staining-based flow cytometric analysis; format: functional
[22] = test system: HCT-116; test: Induction of apoptosis in human HCT116 cells assessed as downregulation of CDK1 protein level after 24 hrs by Western blot method; format: functional, cell-based
[23] = test system: HCT-116; test: Induction of apoptosis in human HCT116 cells assessed as downregulation of cyclin B protein level after 24 hrs by Western blot method; format: functional, cell-based

Structure (SMILES)	solubility at 48 h [3]	IC50 [4]	IC50 [5]	IC50 [6]	IC50 [7]	also measured
O=C(O)c1cc(O)c2c(c1)C(=O)c1cccc(O)c1C2=O [RHEIN]	0.0456 mg/mL (≈ 160 µM)	101 µM	116 µM	120 µM	106 µM	IC50 [1]: 58 µM; IC50 [2]: 150 µM; IC50 [8]: 130 µM; IC50 [9]: 120 µM; IC50 [10]: 136 µM; IC50 [11]: 80 µM; IC50 [12]: 100 µM; IC50 [13]: 140 µM; IC50 [14]: 710 µM; IC50 [15]: 110 µM
Cl.Cl.O=C(OCCCCCCN1CCN(CCO)CC1)c1cc(O)c2c(c1)C(=O)c1cccc(O)c1C2=O	15.1 mg/mL	0.85 µM	0.31 µM	5.28 µM	7.63 µM	IC50 [9]: 2.36 µM; IC50 [10]: 4.48 µM; Ratio IC50 [16]: 5 - 18; Ratio IC50 [17]: 5 - 18; Activity [18]: Dose-dependent effect; Activity [19]: 56.08%; Activity [20]: Dose-dependent effect; Activity [21]: Dose-dependent effect; Activity [22]: Dose-dependent effect; Activity [23]: Dose-dependent effect
Cl.O=C(OCCCCCCN1CCCCC1)c1cc(O)c2c(c1)C(=O)c1cccc(O)c1C2=O	11 mg/mL	0.52 µM	0.48 µM	3.01 µM	5.92 µM	IC50 [9]: 3.95 µM; IC50 [10]: 5.95 µM; Ratio IC50 [16]: 5 - 18; Ratio IC50 [17]: 5 - 18
CN1CCN(CCCCOC(=O)c2cc(O)c3c(c2)C(=O)c2cccc(O)c2C3=O)CC1.Cl.Cl	14.8 mg/mL	3.32 µM	2.93 µM	2.9 µM	6.63 µM	–
Cl.Cl.O=C(OCCCCCN1CCN(CCO)CC1)c1cc(O)c2c(c1)C(=O)c1cccc(O)c1C2=O	12.2 mg/mL	2.51 µM	0.55 µM	5.21 µM	0.95 µM	–
Cl.O=C(OCCCCN1CCOCC1)c1cc(O)c2c(c1)C(=O)c1cccc(O)c1C2=O	11.7 mg/mL	6.23 µM	3.29 µM	21.4 µM	24.4 µM	–
Cl.O=C(OCCCN1CCCCC1)c1cc(O)c2c(c1)C(=O)c1cccc(O)c1C2=O	11.3 mg/mL	3.44 µM	0.77 µM	5.41 µM	7.74 µM	–
CCN(CC)CCCCOC(=O)c1cc(O)c2c(c1)C(=O)c1cccc(O)c1C2=O.Cl	13 mg/mL	1.34 µM	1.81 µM	3.86 µM	5.36 µM	–
Cl.O=C(OCCCCCN1CCCCC1)c1cc(O)c2c(c1)C(=O)c1cccc(O)c1C2=O	10.3 mg/mL	6.12 µM	5.28 µM	8.69 µM	1.95 µM	–
Cl.O=C(OCCCCCCN1CCOCC1)c1cc(O)c2c(c1)C(=O)c1cccc(O)c1C2=O	12.8 mg/mL	0.79 µM	3.26 µM	25.4 µM	27.5 µM	–
Cl.Cl.O=C(OCCCCN1CCN(CCO)CC1)c1cc(O)c2c(c1)C(=O)c1cccc(O)c1C2=O	12 mg/mL	3.65 µM	0.85 µM	2.5 µM	4 µM	–
CCN1CCN(CCCCOC(=O)c2cc(O)c3c(c2)C(=O)c2cccc(O)c2C3=O)CC1.Cl.Cl	10.5 mg/mL	2.51 µM	1.88 µM	8.56 µM	5.23 µM	–
CN1CCN(CCCCCCOC(=O)c2cc(O)c3c(c2)C(=O)c2cccc(O)c2C3=O)CC1.Cl.Cl	12.9 mg/mL	0.42 µM	0.76 µM	3.39 µM	5.05 µM	–
CCN(CC)CCCCCOC(=O)c1cc(O)c2c(c1)C(=O)c1cccc(O)c1C2=O.Cl	12.4 mg/mL	12.2 µM	9.05 µM	27.3 µM	15.2 µM	–
CCN(CC)CCCOC(=O)c1cc(O)c2c(c1)C(=O)c1cccc(O)c1C2=O.Cl	13.6 mg/mL	2.94 µM	0.65 µM	6.23 µM	8.28 µM	–
CCN1CCN(CCCOC(=O)c2cc(O)c3c(c2)C(=O)c2cccc(O)c2C3=O)CC1.Cl.Cl	10.1 mg/mL	1.36 µM	3.97 µM	7.62 µM	3.59 µM	–
CN1CCN(CCCOC(=O)c2cc(O)c3c(c2)C(=O)c2cccc(O)c2C3=O)CC1.Cl.Cl	13.3 mg/mL	4.93 µM	3.75 µM	8.41 µM	11.4 µM	–
Cl.O=C(OCCCCCN1CCOCC1)c1cc(O)c2c(c1)C(=O)c1cccc(O)c1C2=O	12.3 mg/mL	6.03 µM	8.73 µM	10.8 µM	9.85 µM	–
CCN1CCN(CCCCCOC(=O)c2cc(O)c3c(c2)C(=O)c2cccc(O)c2C3=O)CC1.Cl.Cl	10 mg/mL	2.86 µM	2.39 µM	6.78 µM	0.42 µM	–
CCN1CCN(CCCCCCOC(=O)c2cc(O)c3c(c2)C(=O)c2cccc(O)c2C3=O)CC1.Cl.Cl	10.2 mg/mL	1.47 µM	1.93 µM	6.42 µM	3.25 µM	–
CN1CCN(CCCCCOC(=O)c2cc(O)c3c(c2)C(=O)c2cccc(O)c2C3=O)CC1.Cl.Cl	13.7 mg/mL	2.95 µM	1.5 µM	6.32 µM	1.13 µM	–
Cl.Cl.O=C(OCCCN1CCN(CCO)CC1)c1cc(O)c2c(c1)C(=O)c1cccc(O)c1C2=O	12.2 mg/mL	4.02 µM	0.71 µM	7.11 µM	8.86 µM	–
Cl.O=C(OCCCCN1CCCCC1)c1cc(O)c2c(c1)C(=O)c1cccc(O)c1C2=O	10.7 mg/mL	0.89 µM	2.03 µM	26.4 µM	28.9 µM	–
Cl.O=C(OCCCN1CCOCC1)c1cc(O)c2c(c1)C(=O)c1cccc(O)c1C2=O	12.1 mg/mL	1.81 µM	4.92 µM	24.9 µM	27.3 µM	–
O=c1[nH]cc(F)c(=O)[nH]1 [FLUOROURACIL]	–	5.82 µM	4.3 µM	10.3 µM	4.32 µM	IC50 [9]: 7.57 µM; IC50 [10]: 214 µM
CCN(CC)CCCCCCOC(=O)c1cc(O)c2c(c1)C(=O)c1cccc(O)c1C2=O.Cl	13.8 mg/mL	0.33 µM	0.83 µM	4.39 µM	7.56 µM	IC50 [9]: 6.49 µM; IC50 [10]: 7.31 µM; Ratio IC50 [16]: 5 - 18; Ratio IC50 [17]: 5 - 18
